Data on one molecule can be found in patent US12459876B2, “One-step kit-based synthesis of 2-deoxy-2-[18F]fluoro-D-sorbitol” (The Johns Hopkins University, priority 2020, dated 2025).

The conditions of series [1]: human, in vivo; cited from earlier work.
The test system of another series is E. coli. The settings on record: cited from earlier work.
For series [2] the following is noted: rat, in vivo; cited from earlier work.
In another series the test system is K. pneumoniae. The settings on record: intravenous; PET 120 minutes post-tracer injection; n=6; Mann Whitney U test.
For series [3] the following is noted: in vivo; cited from earlier work.

Each structure is given as a SMILES string. Read-outs that look alike come from different tables or passages of the source.

In the case of `OC[C@@H](O)[C@@H](O)[C@H](O)[C@@H]([18F])CO` [^18F-FDS, 2-deoxy-2-[^18F]fluoro-D-sorbitol], the “PET signal outside the site of infection (biodistribution)” value in the series on Enterobacterales (patient with Enterobacter aerogenes cellulitis, MIP) is “Signal also is noted in the heart (blood pool), liver, kidneys, and the urinary bladder”. Also, the “Monitoring of antimicrobial response by repeat imaging” value in the series on Enterobacterales (patients, repeat imaging after antibiotic treatments) is recorded as “able to monitor antimicrobial response”. Also, the “Accumulation in the renal cortex” value in series [1] is recorded as “rapid ^18F-FDS accumulation in the renal cortex with gradual transition to the parenchyma”. The “Detection of therapeutic failures” value in the series with E. coli (MDR, extended-spectrum β-lactamase producing E. coli strains) is “detect therapeutic failures”. Also, the “Distinction of infection from sterile inflammation” value in the series with E. coli (mouse models) was “able to distinguish infection from sterile inflammation”. In series [2], the “Accumulation in the renal cortex” value is recorded as “rapid accumulation” and the Renal uptake result is given as “significantly delayed”. In addition, the “SUVmean, areas of pneumonia compared to unaffected lung” value in the series with K. pneumoniae was “significantly higher”. Moreover, the Route of clearance result in series [3] was “predominantly cleared through the kidneys”.
